Data on three compounds can be found in the NIST ThermoML archive (doi:10.1016/j.jct.2008.07.012).

Numbers after ± are expanded uncertainties.

The nature of this data set: molar enthalpy of vaporization or sublimation. The conditions noted are these: 298.15 K; Crystal; Calvet Calorimetry.
With `O=[N+]([O-])c1ccccc1Cl` [1-chloro-2-nitrobenzene], the molar enthalpy was determined as 80.9 ± 3 kJ/mol.

As to `O=[N+]([O-])c1cccc(Cl)c1` [1-chloro-3-nitrobenzene], the molar enthalpy came to 82.5 ± 3 kJ/mol. Under `O=[N+]([O-])c1ccc(Cl)cc1` [1-chloro-4-nitrobenzene] stands 76.2 ± 4.2 kJ/mol.
